Like-named read-outs stand apart in the source and are kept apart here.
Columns and labels:
Test in all cases: Test C pre/postemergence
Assay type in all cases: in vivo
[1] = test system: eastern black nightshade (Solanum ptycanthum); conditions: Solanum, pre-emergence, Preemergence, read-out: Plant response rating, Nightshade
Procedure, shortened: (§1)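 Injury scored visually 12–14 days after application on 0–100 scale (100 = complete control), relative to controls. Compounds, formulated with surfactant in non-phytotoxic solvent, applied to soil at planting (pre) or to 1- to 4-leaf plants 2–18 cm tall (post) in greenhouse.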

kochia (Kochia scoparia) = conditions: Bassia scoparia; for pest or weed control at 8 g/ha: 8 g ai/ha; for pest or weed control at 16 g/ha: 16 g ai/ha; for pest or weed control at 31 g/ha: 31 g ai/ha; for pest or weed control at 62 g/ha: 62 g ai/ha
Procedure, shortened: as §1

corn (Zea mays) = conditions: Zea mays; for Corn plant response rating (crop injury, 0 = no effect, 100 = complete kill) at 8 g/ha: 8 g ai/ha; for Corn plant response rating (crop injury, 0 = no effect, 100 = complete kill) at 16 g/ha: 16 g ai/ha; for Corn plant response rating (crop injury, 0 = no effect, 100 = complete kill) at 62 g/ha: 62 g ai/ha
Procedure, shortened: as §1

[2] = test system: woolly cupgrass (Eriochloa villosa); conditions: Eriochloa villosa; for pest or weed control at 8 g/ha: 8 g ai/ha; for pest or weed control at 16 g/ha: 16 g ai/ha; for pest or weed control at 31 g/ha: 31 g ai/ha; for pest or weed control at 62 g/ha: 62 g ai/ha
Procedure, shortened: as §1

[3] = test system: common ragweed (Ambrosia elatior); conditions: Ambrosia artemisiifolia; for pest or weed control at 8 g/ha: 8 g ai/ha; for pest or weed control at 16 g/ha: 16 g ai/ha; for pest or weed control at 31 g/ha: 31 g ai/ha; for pest or weed control at 62 g/ha: 62 g ai/ha
Procedure, shortened: as §1

[4] = test system: pigweed (Amaranthus retroflexus); conditions: Amaranthus retroflexus; for pest or weed control at 8 g/ha: 8 g ai/ha; for pest or weed control at 16 g/ha: 16 g ai/ha; for pest or weed control at 31 g/ha: 31 g ai/ha; for pest or weed control at 62 g/ha: 62 g ai/ha
Procedure, shortened: as §1

[5] = post-emergence, Postemergence, read-out: Plant response rating (scale of 0 to 100), Kochia
[6] = pre-emergence, Preemergence, scale 0 to 100, 0 no effect, 100 complete control, read-out: Plant response rating, Kochia
[7] = post-emergence, Postemergence, read-out: Plant response rating (scale of 0 to 100), Corn
[8] = pre-emergence, Preemergence, scale 0 to 100, 0 no effect, 100 complete control, read-out: Plant response rating, Corn
[9] = post-emergence, Postemergence, read-out: Plant response rating (scale of 0 to 100), Cupgrass, Woolly
[10] = pre-emergence, Preemergence, scale 0 to 100, 0 no effect, 100 complete control, read-out: Plant response rating, Cupgrass, Woolly
[11] = post-emergence, Postemergence, read-out: Plant response rating (scale of 0 to 100), Ragweed
[12] = pre-emergence, Preemergence, scale 0 to 100, 0 no effect, 100 complete control, read-out: Plant response rating, Ragweed
[13] = post-emergence, Postemergence, read-out: Plant response rating (scale of 0 to 100), Pigweed
[14] = pre-emergence, Preemergence, scale 0 to 100, 0 no effect, 100 complete control, read-out: Plant response rating, Pigweed

`Nc1nc(-c2ccc(Br)cc2)nc(C(=O)O)c1Cl` [Compound 95, 6-amino-2-(4-bromophenyl)-5-chloro-4-pyrimidinecarboxylic acid] gave a pest or weed control at 8 g/ha ([1]; 8 g ai/ha, scale 0 to 100 (0 no effect, 100 complete control)) of 0%, a pest or weed control at 16 g/ha ([1]; 16 g ai/ha, scale 0 to 100, 0 no effect, 100 complete control) of 0% and a pest or weed control at 31 g/ha ([1]; 31 g ai/ha, scale 0 to 100, 0 no effect, 100 complete control) of 60%. The pest or weed control at 62 g/ha ([1]; 62 g ai/ha, scale 0 to 100, 0 no effect, 100 complete control) was 75%, the pest or weed control at 8 g/ha (kochia (Kochia scoparia); post-emergence, Postemergence, scale 0 to 100, read-out: Plant response rating, Kochia) was 90% and the pest or weed control at 16 g/ha (kochia (Kochia scoparia); [5]) was 95%. For the same compound, the pest or weed control at 31 g/ha (kochia (Kochia scoparia); [5]) was 95%, the pest or weed control at 62 g/ha (kochia (Kochia scoparia); [5]) was 95% and the pest or weed control at 8 g/ha (kochia (Kochia scoparia); pre-emergence, Preemergence, scale 0 to 100 (0 no effect, 100 complete control), read-out: Plant response rating, Kochia) was 0%. The pest or weed control at 16 g/ha (kochia (Kochia scoparia); [6]) was 0%, the pest or weed control at 31 g/ha (kochia (Kochia scoparia); [6]) was 40% and the pest or weed control at 62 g/ha (kochia (Kochia scoparia); [6]) was 45%. It also gave a Corn plant response rating (crop injury, 0 = no effect, 100 = complete kill) at 8 g/ha (corn (Zea mays); post-emergence, Postemergence, scale 0 to 100) of 20%, a Corn plant response rating (crop injury, 0 = no effect, 100 = complete kill) at 16 g/ha (corn (Zea mays); [7]) of 20% and a Corn plant response rating (crop injury, 0 = no effect, 100 = complete kill) at 62 g/ha (corn (Zea mays); [7]) of 35%. For the same compound, the Corn plant response rating (crop injury, 0 = no effect, 100 = complete kill) at 8 g/ha (corn (Zea mays); pre-emergence, Preemergence, scale 0 to 100 (0 no effect, 100 complete control)) was 0%, the Corn plant response rating (crop injury, 0 = no effect, 100 = complete kill) at 16 g/ha (corn (Zea mays); [8]) was 0% and the Corn plant response rating (crop injury, 0 = no effect, 100 = complete kill) at 31 g/ha (corn (Zea mays); pre-emergence, Preemergence, 31 g ai/ha, scale 0 to 100, 0 no effect, 100 complete control, read-out: Plant response rating, Corn) was 0%. For the same compound, the Corn plant response rating (crop injury, 0 = no effect, 100 = complete kill) at 62 g/ha (corn (Zea mays); [8]) was 5%, the pest or weed control at 8 g/ha ([2]; post-emergence, Postemergence, scale 0 to 100, read-out: Plant response rating, Cupgrass, Woolly) was 75% and the pest or weed control at 16 g/ha [2, 9] was 75%. The pest or weed control at 31 g/ha [2, 9] was 75%, the pest or weed control at 62 g/ha [2, 9] was 80% and the pest or weed control at 8 g/ha ([2]; pre-emergence, Preemergence, scale 0 to 100 (0 no effect, 100 complete control), read-out: Plant response rating, Cupgrass, Woolly) was 0%. The pest or weed control at 16 g/ha [2, 10] was 0%, the pest or weed control at 31 g/ha [2, 10] was 0% and the pest or weed control at 62 g/ha [2, 10] was 5%. It also gave a pest or weed control at 8 g/ha ([3]; post-emergence, Postemergence, scale 0 to 100, read-out: Plant response rating, Ragweed) of 90%, a pest or weed control at 16 g/ha [3, 11] of 95% and a pest or weed control at 31 g/ha [3, 11] of 95%. The pest or weed control at 62 g/ha [3, 11] was 95%, the pest or weed control at 8 g/ha ([3]; pre-emergence, Preemergence, scale 0 to 100 (0 no effect, 100 complete control), read-out: Plant response rating, Ragweed) was 65% and the pest or weed control at 16 g/ha [3, 12] was 90%. The pest or weed control at 31 g/ha [3, 12] was 100%, the pest or weed control at 62 g/ha [3, 12] was 100% and the pest or weed control at 8 g/ha ([4]; post-emergence, Postemergence, scale 0 to 100, read-out: Plant response rating, Pigweed) was 90%. The pest or weed control at 16 g/ha [4, 13] was 95%, the pest or weed control at 31 g/ha [4, 13] was 100% and the pest or weed control at 62 g/ha [4, 13] was 100%. For the same compound, the pest or weed control at 8 g/ha ([4]; pre-emergence, Preemergence, scale 0 to 100 (0 no effect, 100 complete control), read-out: Plant response rating, Pigweed) was 50%, the pest or weed control at 16 g/ha [4, 14] was 90% and the pest or weed control at 31 g/ha [4, 14] was 100%. For the same compound, the pest or weed control at 62 g/ha [4, 14] was 100%.

Source: US8802597B2, “Herbicidal pyrimidines” (E I du Pont de Nemours and Company, priority 2003, dated 2014)
